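A five-concentration, 48-hour dose response in 96-well plates underlies each endpoint, interpolated linearly between surrounding concentrations. TGI marks complete inhibition of growth.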 Where a SMILES comes first, the peptide text is derived from it. The star is where a group is joined. Boc = CC(C)(C)OC(=O)*; Bn = c1ccc(C*)cc1
Tests used:
Assay in all cases: NCI-60 cell line screen, 48 h
786-0 renal = system: 786-0 renal
HT29 colon = system: HT29 colon
IGROV1 ovarian = system: IGROV1 ovarian
OVCAR-4 ovarian = system: OVCAR-4 ovarian
RXF 393 renal = system: RXF 393 renal
SF-295 CNS = system: SF-295 CNS
SF-539 CNS = system: SF-539 CNS
SK-MEL-2 melanoma = system: SK-MEL-2 melanoma
SK-MEL-28 melanoma = system: SK-MEL-28 melanoma
SN12C renal = system: SN12C renal
SW-620 colon = system: SW-620 colon
LOX IMVI melanoma = system: LOX IMVI melanoma

SMILES	TGI (786-0 renal) [µM]	TGI (HT29 colon) [µM]	TGI (IGROV1 ovarian) [µM]	TGI (OVCAR-4 ovarian) [µM]	TGI (RXF 393 renal) [µM]	TGI (SF-295 CNS) [µM]	TGI (SF-539 CNS) [µM]	TGI (SK-MEL-2 melanoma) [µM]	TGI (SK-MEL-28 melanoma) [µM]	TGI (SN12C renal) [µM]	TGI (SW-620 colon) [µM]	TGI (LOX IMVI melanoma) [µM]
NC(N)=NS(=O)(=O)c1ccc(NNc2c3ccccc3nc3c(C(=O)Nc4ccc(S(=O)(=O)Nc5ncccn5)cc4)cccc23)cc1	> 100	54.6	44.6	> 100	> 100	> 100	> 100	> 100	> 100	> 100	> 100	
CC1(C)/C(=N\NC(N)=O)C2CCC1C2 (stereo not given)	> 100	> 100	> 100	> 100		> 100		> 100	> 100		> 100	> 100
COC(=O)c1c(O)ccc2c1c1c(n2Cc2cc(OC)cc(OC)c2)C(=O)c2ccccc2C1	> 100	24.6	> 100	44.8	68.6	> 100	> 100	> 100	60.9	> 100	> 100	> 100
COc1cccc(CCNC(=O)Cc2ccccc2CCO)c1	> 100	> 100	> 100	> 100	> 100	> 100	> 100	> 100	> 100	> 100	> 100	
Cc1ccc(-c2c(C#N)c(-c3ccc(C)cc3)n(NS(=O)(=O)c3ccccc3)c(=O)c2C#N)cc1	> 100	> 100	> 100	> 100	> 100	> 100	61.2	> 100	> 100	> 100	> 100	> 100
Cc1ccc(S(=O)(=O)c2[nH]cc(/C(=C\C3CCCCC3)[N+](=O)[O-])c2C2CCCCC2)cc1	0.442	> 100	1.13	1.28	0.407	> 20.6	2.46	1.82	2.75	0.49	3.67	0.439
O=c1oc2ccccc2cc1-c1cc2ccccn2c1	> 100	> 100	> 100	> 100	> 100	> 100		> 100	> 100		> 100	> 100
O=[N+]([O-])C[C@@]12O[C@]3(O)C4C5CC(C6C5C3C61)C42 (stereo not given in full)	> 100	> 100	> 100	> 100	> 100	> 100	> 100	> 100	> 100	> 100	> 100	> 100
CC(C)NC(=O)OCc1c(COC(=O)NC(C)C)c(-c2cc[n+](COC(=O)C3CC3)cc2)n2c1CCC2	> 100	> 100	> 100	> 100	> 100	> 100	> 100	> 100	> 100	> 100	> 100	> 100
O=C(N/N=C(\c1ccccc1)c1ccccn1)NC1CCCCC1	> 100	> 100	> 100	> 100		> 100		> 100	> 100	> 100	> 100	51.7
COc1cc2c(cc1OC)C(CC1=C(c3ccccc3)CN3CCc4cc(OC)c(OC)cc4C3C1)NCC2 (stereo not given)	29.5	26.3	32.8	29.8	17.6	31.1		37.1	28.5	37	34.6	33.6
O=[N+]([O-])c1ccc2[nH]c(=S)[nH]c(=S)c2c1	> 100	> 100	> 100	> 100	> 100	> 100	> 100	> 100	> 100	> 100		> 100
Cc1ccc(C2SCC(=O)N2c2ccc(-n3c(-c4ccccc4)nc4ccccc4c3=O)cc2)cc1 (stereo not given)	74.1	61.1	90.7	> 100	91.3	44.7	39.6	51.3	> 100	> 100	> 100	48.5
O=C1Nc2cccc(Cl)c2/C1=C\c1c(Cl)nc2n1CCS2	> 100	> 100	> 100		> 100	> 100	> 100	> 100	> 100	> 100	> 100	> 100
CCn1c(-c2ccccc2)cs/c1=N\C(P(=O)(O)O)P(=O)(O)O	> 100	> 100	> 100		> 100	> 100	> 100		> 100		> 100	> 100
N#CC1C(=S)NC(c2ccccc2)=CC12CCCCC2 (stereo not given)	> 100	> 100	70.2	85.5	> 100		> 100	55.8	95.5	> 100	> 100	40.7
O=C(O)CCCc1nc2c(n1Cc1ccccc1)C(=O)c1ccccc1C2=O	> 100		> 100	77.8		86.1	> 100	52.9	> 100	> 100	> 100	> 100
CCOC(=O)Nc1[nH]cc(-c2ccccc2)c1C#N	> 100	> 100	> 100	> 100		> 100		> 100	> 100	> 100	> 100	> 100
C=CCc1cccc2cc(C(=O)NCc3ccccc3)c(=N)oc12	91.4	> 100	> 100	> 100	> 100		> 100	31.5	> 100	91	> 100	> 100
CCOC(=O)CCC(NC(=O)Cc1ccc(Nc2nc3cc(F)c(F)cc3nc2C(=O)OCC)cc1)C(=O)OCC (stereo not given)	> 100	> 100		> 100		> 100	> 100	60.4	> 100	> 100	> 100	> 100

SMILES	TGI (786-0 renal) [µM]	TGI (HT29 colon) [µM]	TGI (IGROV1 ovarian) [µM]	TGI (OVCAR-4 ovarian) [µM]	TGI (RXF 393 renal) [µM]	TGI (SF-295 CNS) [µM]	TGI (SF-539 CNS) [µM]	TGI (SK-MEL-2 melanoma) [µM]	TGI (SK-MEL-28 melanoma) [µM]	TGI (SN12C renal) [µM]	TGI (SW-620 colon) [µM]	TGI (LOX IMVI melanoma) [µM]
CC1(C)[C@@H](Cn2ccc(=O)[nH]c2=O)CC[C@@]1(C)CO	> 100			> 100	> 100	> 100		> 100	> 100	> 100	> 100	> 100
O=C1COc2cccnc2N1CCCCO	> 100		> 100		> 100	> 100	> 100	> 100	> 100	> 100	> 100	> 100
CN=C(n1ccnc1)n1ccnc1	> 100	> 100	> 100	> 100	> 100		> 100	> 100	> 100	> 100	> 100	> 100
COC(=O)C(CC(C)C)NC(=O)C(C)NC(=O)C(Cc1ccc(OCc2ccccc2)cc1)NC(=O)C(COCc1ccccc1)NC(=O)OC(C)(C)C (stereo not given) (Boc-S(Bn)Y(Bn)AL-OMe; configuration not given here)	> 100	> 100	> 100	> 100	> 100	> 100	> 100		> 100	> 100	> 100	> 100
O=C1c2ccccc2C(=O)c2c(NCC(O)CO)ccc(NCC(O)CO)c21 (stereo not given)	> 100	> 100	> 100	> 100			> 100	94.8	> 100	> 100	> 100	> 100
Cc1ccc(-n2cnc(C(=N)C#N)c2N)cc1	> 100	> 100	> 100	> 100		> 100	> 100	> 100	> 100	> 100	> 100	> 100
CCCNC(=O)NNC(=O)c1c[nH]c2nc(C)ccc2c1=O	> 100	> 100	> 100	> 100	> 100	> 100		> 100	> 100	> 100	> 100	> 100
CC1=NN(c2nc(N)nc(/C(C#N)=C\c3ccc([N+](=O)[O-])s3)n2)C(C)(C)C1	0.289	0.722	0.287	12.1		23.1	0.467	1.66	1.21	1.51		0.3
CO/N=C(\C)c1ccc(Nc2nc3ccccc3c3occc23)cc1	27.2	14.5	31.7			31.5	27.5	33.4		28.9		32.1
CC1(C)C(C#N)C1C1=C(N2CCOCC2)[C@]2(C)C(OC(=O)c3ccccc3)CC[C@@H]2C1 (stereo not given in full)	> 100	> 100	> 100	> 100	> 100	> 100	> 100		> 100	> 100	> 100	
C=CCCON(C(=O)OC(C)(C)C)C(C)(C)C	> 100	> 100	> 100		> 100	> 100	> 100	> 100	> 100	> 100	> 100	> 100
CN1CCc2c([nH]c3ccccc23)C1	> 100	> 100	> 100	> 100	> 100	> 100		> 100	> 100	> 100	> 100	> 100
CC(=O)Nc1ccc(N=Nc2c(O)c(S(=O)(=O)O)cc3cc(S(=O)(=O)O)ccc23)cc1	> 100	> 100	> 100	> 100	> 100	> 100		> 100	> 100	> 100	> 100	
CC(=O)OC(OC(C)=O)c1ccc2ccc3cccc4ccc1c2c34	> 100	38.3	54.1		25.3	37.5	> 100			> 100		36
N#C[C@H](c1ccccn1)c1nc2ccccc2nc1Cl	> 100	> 100	> 100	> 100	> 100	> 100	> 100	> 100	> 100	> 100	> 100	
CC(=O)N=C1N(/C=C2\C(=O)Oc3ccccc3C2=O)C(=O)/C(=C/c2cccc(Cl)c2Cl)N1C	> 100	49.1	> 100		84.6	> 100	27.7	60.4	> 100	> 100	> 100	> 100
Nc1c(C(=O)O)nnc2ccc(Cl)cc12	> 100	> 100	> 100	> 100		> 100	> 100	> 100		> 100	> 100	> 100
Cc1c(C)c2c(c(N)c1C#N)C(=O)N(NC(=O)c1ccccc1)C2=O	> 100		> 100	> 100	> 100	> 100	> 100	> 100	> 100	> 100	> 100	> 100
CCCCCCNc1n[nH]c(=O)c2c1nnn2Cc1ccccc1	> 100	> 100		> 100		> 100		> 100	> 100	> 100		> 100
O=C1C=CC(=O)c2c1ccc1c3ccccc3n(CCCCCn3c4ccccc4c4ccc5c(c43)C(=O)C=CC5=O)c21	14.3	85.5	20.6		21.1	> 100	33.9	44.8	31.5	41.5	26.8	35
